Source: ChEMBL document CHEMBL1139094, “The synthesis and structure-activity relationship studies of selective acetyl-CoA carboxylase inhibitors containing 4-(thiazol-5-yl)but-3-yn-2-amino motif: polar region modifications” (Bioorg Med Chem Lett, 2007)

Assays:
[1] = target: Acetyl-CoA carboxylase 1 (Homo sapiens, UniProt Q13085); test: Inhibition of ACC1
[2] = target: Acetyl-CoA carboxylase 2 (Homo sapiens, UniProt O00763); test: Inhibition of ACC2
[3] = species: Homo sapiens; test: Selectivity for human ACC2 over ACC1

Chain of Acetyl-CoA carboxylase 2 (O00763 whole entry): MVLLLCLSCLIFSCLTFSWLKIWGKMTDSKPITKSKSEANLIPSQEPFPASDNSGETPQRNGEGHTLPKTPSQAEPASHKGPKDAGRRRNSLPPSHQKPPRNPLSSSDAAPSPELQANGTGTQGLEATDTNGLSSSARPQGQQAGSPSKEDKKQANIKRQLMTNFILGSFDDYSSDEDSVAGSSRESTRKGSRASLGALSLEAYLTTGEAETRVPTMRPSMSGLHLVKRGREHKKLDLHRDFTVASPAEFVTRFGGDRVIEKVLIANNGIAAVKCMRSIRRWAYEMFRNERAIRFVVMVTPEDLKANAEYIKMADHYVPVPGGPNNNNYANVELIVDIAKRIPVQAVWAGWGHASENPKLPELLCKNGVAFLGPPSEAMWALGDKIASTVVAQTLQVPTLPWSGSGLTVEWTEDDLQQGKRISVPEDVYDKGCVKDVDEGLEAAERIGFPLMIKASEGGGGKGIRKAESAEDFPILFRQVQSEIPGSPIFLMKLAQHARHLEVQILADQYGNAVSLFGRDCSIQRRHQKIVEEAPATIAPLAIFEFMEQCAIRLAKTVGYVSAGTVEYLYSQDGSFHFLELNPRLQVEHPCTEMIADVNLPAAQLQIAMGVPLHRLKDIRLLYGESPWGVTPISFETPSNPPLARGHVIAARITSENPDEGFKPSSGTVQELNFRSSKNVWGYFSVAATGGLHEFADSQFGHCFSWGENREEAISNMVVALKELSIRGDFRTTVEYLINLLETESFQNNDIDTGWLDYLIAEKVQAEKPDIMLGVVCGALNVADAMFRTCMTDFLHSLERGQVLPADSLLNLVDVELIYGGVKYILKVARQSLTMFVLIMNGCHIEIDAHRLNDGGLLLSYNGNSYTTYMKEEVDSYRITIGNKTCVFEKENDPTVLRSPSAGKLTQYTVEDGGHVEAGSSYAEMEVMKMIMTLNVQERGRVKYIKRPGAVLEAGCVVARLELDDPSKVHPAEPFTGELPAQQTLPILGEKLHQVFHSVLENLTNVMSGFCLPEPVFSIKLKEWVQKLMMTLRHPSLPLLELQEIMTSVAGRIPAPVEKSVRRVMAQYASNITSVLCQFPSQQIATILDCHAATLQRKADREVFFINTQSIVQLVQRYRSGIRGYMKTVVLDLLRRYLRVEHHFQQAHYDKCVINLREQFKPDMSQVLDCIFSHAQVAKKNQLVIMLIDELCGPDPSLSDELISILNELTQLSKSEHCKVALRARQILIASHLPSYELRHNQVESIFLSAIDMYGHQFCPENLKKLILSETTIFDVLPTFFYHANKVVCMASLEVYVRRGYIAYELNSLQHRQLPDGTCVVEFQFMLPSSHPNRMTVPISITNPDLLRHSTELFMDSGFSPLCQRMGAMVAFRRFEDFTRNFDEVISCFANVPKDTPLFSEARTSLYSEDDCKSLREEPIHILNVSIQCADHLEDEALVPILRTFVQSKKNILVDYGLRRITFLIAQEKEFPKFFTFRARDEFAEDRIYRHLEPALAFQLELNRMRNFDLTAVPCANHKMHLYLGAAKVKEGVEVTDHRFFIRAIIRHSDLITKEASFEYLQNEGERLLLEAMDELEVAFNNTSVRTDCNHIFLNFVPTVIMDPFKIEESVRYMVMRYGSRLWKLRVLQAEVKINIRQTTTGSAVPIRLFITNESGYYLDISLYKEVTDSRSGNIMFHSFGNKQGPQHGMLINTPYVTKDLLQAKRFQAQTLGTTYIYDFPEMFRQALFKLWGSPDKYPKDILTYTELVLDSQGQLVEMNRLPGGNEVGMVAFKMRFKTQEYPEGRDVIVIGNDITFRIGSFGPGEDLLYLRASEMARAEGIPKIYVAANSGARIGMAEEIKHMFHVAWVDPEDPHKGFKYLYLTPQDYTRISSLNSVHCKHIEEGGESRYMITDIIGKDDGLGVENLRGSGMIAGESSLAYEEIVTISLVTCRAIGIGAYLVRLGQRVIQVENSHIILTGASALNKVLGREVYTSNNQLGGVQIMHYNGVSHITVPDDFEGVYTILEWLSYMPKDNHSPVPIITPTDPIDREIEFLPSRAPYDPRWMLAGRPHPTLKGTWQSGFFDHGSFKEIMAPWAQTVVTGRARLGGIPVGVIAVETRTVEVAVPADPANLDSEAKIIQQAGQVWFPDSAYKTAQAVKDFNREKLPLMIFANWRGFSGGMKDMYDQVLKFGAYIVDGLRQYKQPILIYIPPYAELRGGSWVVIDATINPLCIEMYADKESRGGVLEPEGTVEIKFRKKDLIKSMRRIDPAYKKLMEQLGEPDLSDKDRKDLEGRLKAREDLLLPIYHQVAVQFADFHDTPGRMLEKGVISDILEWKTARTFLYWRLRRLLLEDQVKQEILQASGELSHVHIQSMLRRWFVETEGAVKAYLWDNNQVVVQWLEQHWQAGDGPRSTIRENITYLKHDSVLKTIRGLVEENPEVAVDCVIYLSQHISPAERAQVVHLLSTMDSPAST

Compound	IC50 [1]	IC50 [2]	Ratio IC50 [3]
CC(C#Cc1cnc(Oc2ccc(Oc3ccccc3)cc2)s1)Nc1ccon1 (stereo not drawn)	5020 nM	42 nM	–
CC(C#Cc1cnc(Oc2ccc(OC(C)C)cc2)s1)NC(=O)NCC(N)=O (stereo not drawn)	> 30000 nM	920 nM	–
CC(=O)NC(C)(C)C#Cc1cnc(Oc2ccc(OC(C)C)cc2)s1	> 30000 nM	500 nM	–
CCC(C#Cc1cnc(Oc2ccc(OC(C)C)cc2)s1)NC(C)=O (stereo not drawn)	> 30000 nM	530 nM	–
Cc1noc(NC(C)C#Cc2cnc(Oc3ccc(Oc4ccccc4)cc3)s2)c1C (stereo not drawn)	> 30000 nM	38 nM	–
CC(C#Cc1cnc(Oc2ccc(Oc3ccccc3)cc2)s1)Nc1ncc[nH]1 (stereo not drawn)	> 30000 nM	3980 nM	–
CC(=O)NC(C#Cc1cnc(Oc2ccc(OC(C)C)cc2)s1)c1ccccc1 (stereo not drawn)	> 30000 nM	> 30000 nM	–
CC(C#Cc1cnc(Oc2ccc(Oc3ccccc3)cc2)s1)N(O)C(N)=O (stereo not drawn)	–	75 nM	> 1000
CC(C#Cc1cnc(Oc2ccc(OC(C)C)cc2)s1)NC(=O)N(C)C (stereo not drawn)	> 30000 nM	71 nM	–
CCn1ccc(NC(C)C#Cc2cnc(Oc3ccc(Oc4ccccc4)cc3)s2)n1 (stereo not drawn)	> 30000 nM	440 nM	–
CC(C)CONC(=O)NC(C)C#Cc1cnc(Oc2ccc(OC(C)C)cc2)s1 (stereo not drawn)	> 30000 nM	20500 nM	–
CC(C#Cc1cnc(Oc2ccc(OC(C)C)cc2)s1)NC(=O)ON (stereo not drawn)	> 30000 nM	680 nM	–

Other lines, results leading:

IC50 [1]	IC50 [2]	Ratio IC50 [3]	Compound
> 30000 nM	> 30000 nM	–	CC(C#Cc1cnc(Oc2ccc(Oc3ccccc3)cc2)s1)Nc1nc2ccccc2s1 (stereo not drawn)
–	32 nM	–	CNC(=O)NC(C)C#Cc1cnc(Oc2ccc(OC(C)C)cc2)s1 (stereo not drawn)
> 30000 nM	910 nM	–	CC(=O)NC(C#Cc1cnc(Oc2ccc(OC(C)C)cc2)s1)CO (stereo not drawn)
> 30000 nM	> 30000 nM	–	CC(C#Cc1cnc(Oc2ccc(OC(C)C)cc2)s1)NC(=O)C(=O)O (stereo not drawn)
> 30000 nM	220 nM	–	CC(C#Cc1cnc(Oc2ccc(OC(C)C)cc2)s1)NC(=O)C1CCOC1 (stereo not drawn)
> 30000 nM	570 nM	–	CC(C#Cc1cnc(Oc2ccc(OC(C)C)cc2)s1)NC(=O)C1CCCC1 (stereo not drawn)
–	880 nM	–	CC(=O)NC(C#Cc1cnc(Oc2ccc(OC(C)C)cc2)s1)C1CC1 (stereo not drawn)
> 30000 nM	850 nM	–	COC(=O)C(=O)NC(C)C#Cc1cnc(Oc2ccc(OC(C)C)cc2)s1 (stereo not drawn)
> 30000 nM	57 nM	–	Cc1cc(NC(C)C#Cc2cnc(Oc3ccc(Oc4ccccc4)cc3)s2)on1 (stereo not drawn)
–	1860 nM	–	CC(=O)NCC#Cc1cnc(Oc2ccc(OC(C)C)cc2)s1
> 30000 nM	> 30000 nM	–	CC(C#Cc1cnc(Oc2ccc(OC(C)C)cc2)s1)NC(=O)[C@@H]1CCCN1 (stereo partly drawn)
10700 nM	690 nM	–	CC(C#Cc1cnc(Oc2ccc(Oc3ccccc3)cc2)s1)Nc1nccs1 (stereo not drawn)
> 30000 nM	83 nM	–	Cc1cc(NC(C)C#Cc2cnc(Oc3ccc(Oc4ccccc4)cc3)s2)no1 (stereo not drawn)
> 30000 nM	330 nM	–	CC(C#Cc1cnc(Oc2ccc(OC(C)C)cc2)s1)NC(=O)NO (stereo not drawn)
> 30000 nM	37 nM	–	CC(C#Cc1cnc(Oc2ccc(OC(C)C)cc2)s1)NC(N)=O (stereo not drawn)
> 30000 nM	670 nM	–	CC(C#Cc1cnc(Oc2ccc(OC(C)C)cc2)s1)NC(=O)N1CCOCC1 (stereo not drawn)
